Some test systems named below: CCRF-CEM; HCC 2998; SK-MEL-5; DU-145; NCI-H460; MDA-MB-435; SK-MEL-2; RPMI-8226; OVCAR-4; TK-10; NCI-H23; OVCAR-5; SN12C; EKVX; 786-0; SF-295; HCT-15; KM12; K562; OVCAR-8.
Holding throughout (experiment): NCI tumour cell line growth inhibition, 48 h

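All cell lines were grown in 96-well plates and treated with compound for 48 hours. Here, GI50 denotes the concentration required for 50% inhibition of growth.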 Active and inactive are the calls of the source. Cut-off read from the data, not from the text of the source: active = GI50 up to about 1.1 µM and inactive = higher.

For the compound `NNC(=O)Nc1nc2ccc(NN)cc2[nH]1`, the GI50 in the test on CCRF-CEM was 14.6 µM (inactive); in the test with HCC 2998, 18.5 µM (inactive); with SK-MEL-5 it was 22.9 µM (inactive); in the test with DU-145, 97.7 µM (inactive); in the test on NCI-H460, 27.4 µM (inactive); in the test with MDA-MB-435, 21.5 µM (inactive). The GI50 with SK-MEL-2 was 44 µM (inactive); in the test on RPMI-8226 it was 7 µM (inactive); in the test with OVCAR-4, 34.3 µM (inactive); with TK-10 it was 36 µM (inactive); in the test with NCI-H23, 44.1 µM (inactive); in the test on OVCAR-5 it was > 100 µM (inactive). The GI50 was 42.2 µM (inactive) in the test with SN12C; 65.5 µM (inactive) in the test with EKVX; 31.3 µM (inactive) in the test with 786-0; 47.2 µM (inactive) in the test with SF-295; 31.3 µM with HCT-15; 19.5 µM (inactive) with KM12. Moreover, the GI50 with K562 is 18.7 µM (inactive); in the test with OVCAR-8 it was 54 µM (inactive).
Consider `COC1=CC(=O)c2c(c(-c3csc(C)n3)cn2C)C1=O`, for which the GI50 with CCRF-CEM was 19.2 µM (inactive); with HCC 2998, 10.9 µM (inactive); in the test on SK-MEL-5, 1.72 µM (inactive); in the test with DU-145, 4.85 µM (inactive); with NCI-H460, 3.43 µM (inactive); in the test on MDA-MB-435, 13.8 µM (inactive). Besides, the GI50 in the test with SK-MEL-2 is 17.1 µM (inactive); in the test on RPMI-8226 it was 5.24 µM (inactive); in the test with OVCAR-4, 58.2 µM (inactive); in the test on TK-10 it was 29.9 µM (inactive); in the test with NCI-H23 it was 2.56 µM (inactive); in the test on OVCAR-5, 49.5 µM (inactive). The GI50 is 22.1 µM (inactive) in the test on SN12C; 20 µM (inactive) in the test on EKVX; 36 µM (inactive) in the test with 786-0; 6.75 µM (inactive) in the test with SF-295; 6.34 µM in the test with HCT-15; 22.8 µM (inactive) in the test on KM12. In addition, the GI50 in the test with K562 is 25.4 µM (inactive); in the test with OVCAR-8 it was 22.6 µM (inactive).
As to `NCCN(CCN)/[N+]([O-])=N/O`, the GI50 in the test on CCRF-CEM is 43.6 µM (inactive); in the test on HCC 2998 it was > 100 µM (inactive); in the test on SK-MEL-5 it was > 100 µM (inactive); in the test on DU-145 it was > 100 µM (inactive); in the test on NCI-H460, 69.3 µM (inactive); in the test on MDA-MB-435, > 100 µM (inactive). Moreover, the GI50 in the test with SK-MEL-2, with RPMI-8226, with OVCAR-4, in the test with TK-10, with NCI-H23 and in the test with OVCAR-5 was > 100 µM (inactive) in each case. Further, the GI50 is > 100 µM (inactive) with SN12C; > 100 µM (inactive) in the test with EKVX; > 100 µM (inactive) with 786-0; > 100 µM (inactive) with SF-295; more than 100 µM with HCT-15; > 100 µM (inactive) in the test on KM12. Also, the GI50 was 50.5 µM (inactive) in the test on K562 and > 100 µM (inactive) in the test on OVCAR-8.
For the compound `CCCCCN(CCCCC)CC(C)(C)C(O)c1ccc(OC)c2ccccc12` (stereo not given), the GI50 with CCRF-CEM is 27.9 µM (inactive); with HCC 2998, 3.52 µM (inactive); in the test with SK-MEL-5, 3.52 µM (inactive); in the test with DU-145, 12.5 µM (inactive); in the test with NCI-H460, 3.4 µM (inactive); in the test on MDA-MB-435 it was 10.8 µM (inactive). Moreover, the GI50 with SK-MEL-2 is 18.2 µM (inactive); in the test on RPMI-8226, 4.15 µM (inactive); with OVCAR-4, 11.1 µM (inactive); with TK-10, 7.98 µM (inactive); in the test with NCI-H23, 11.2 µM (inactive); with OVCAR-5, 11.9 µM (inactive). Further, the GI50 is 11.5 µM (inactive) in the test with SN12C; 12.1 µM (inactive) with EKVX; 12.4 µM (inactive) in the test on 786-0; 9.77 µM (inactive) in the test on SF-295; 5.81 µM with HCT-15; 8.81 µM (inactive) in the test on KM12. The GI50 in the test on K562 was 3.01 µM (inactive); in the test on OVCAR-8, 10.5 µM (inactive).
As for `COC(=O)C1OC(O[C@H]2CC[C@]3(C)[C@H]4CC=C5[C@@H]6CC(C)(C)CC[C@]6(C(=O)OC6OCC(O)C(O)C6OC6OC(C)C(OC7OCC(O)C(O)C7O)C(OC7OCC(O)(CO)C7O)C6O)[C@H](O)C[C@@]5(C)[C@]4(C)CC[C@H]3C2(C)C)C(O)C(O)C1O` (stereo not given in full), the GI50 in the test with CCRF-CEM was 14.9 µM (inactive); in the test on HCC 2998, 2.29 µM (inactive); with SK-MEL-5, 4.65 µM (inactive); in the test on DU-145, 8.53 µM (inactive); in the test on NCI-H460, 16.3 µM (inactive); with MDA-MB-435 it was 1.89 µM (inactive). For the same compound, the GI50 in the test with SK-MEL-2 was 2.56 µM (inactive); in the test on RPMI-8226, 3.86 µM (inactive); in the test with OVCAR-4 it was 4.98 µM (inactive); in the test on TK-10, 15.9 µM (inactive); in the test with NCI-H23, 1.8 µM (inactive); with OVCAR-5 it was 3.97 µM (inactive). Further, the GI50 is 1.85 µM (inactive) in the test on SN12C; 2.77 µM (inactive) in the test with EKVX; 7.45 µM (inactive) with 786-0; 4.43 µM (inactive) with SF-295; 10.3 µM in the test on HCT-15; 2.88 µM (inactive) with KM12. Further, the values for the GI50 in the test on K562 and in the test on OVCAR-8 were 5.08 µM (inactive) and 10.5 µM (inactive), respectively.
Turning to `ClCCN(CCCl)c1ccc(/C=N/Nc2ccnc3ccccc23)cc1`, the GI50 in the test on CCRF-CEM was 1.49 µM (inactive); with HCC 2998 it was 3.26 µM (inactive); with SK-MEL-5 it was 1.66 µM (inactive); in the test on DU-145 it was 1.8 µM (inactive); with NCI-H460 it was 2.73 µM (inactive); with MDA-MB-435 it was 1.53 µM (inactive). The GI50 in the test on SK-MEL-2 is 2 µM (inactive); in the test with RPMI-8226, 1.32 µM (inactive); with OVCAR-4, 1.85 µM (inactive); with TK-10 it was 1.52 µM (inactive); with NCI-H23, 2.01 µM (inactive); with OVCAR-5, 1.5 µM (inactive). Also, the GI50 is 1.65 µM (inactive) in the test on SN12C; 2.39 µM (inactive) with EKVX; 1.78 µM (inactive) with 786-0; 1.31 µM (inactive) in the test on SF-295; 1.35 µM in the test with HCT-15; 1.58 µM (inactive) with KM12. In addition, the GI50 with K562 is 1.39 µM (inactive); with OVCAR-8, 1.41 µM (inactive).
Consider `CN1CCC(n2[nH]c(-c3ccccc3)c(Cc3ccccc3)c2=O)CC1` [BENZPIPERYLON], for which the GI50 in the test with CCRF-CEM is 37.9 µM (inactive); with HCC 2998, > 100 µM (inactive); in the test on SK-MEL-5, > 100 µM (inactive); in the test with DU-145, 97.3 µM (inactive); with NCI-H460, 49.5 µM (inactive); with MDA-MB-435, > 100 µM (inactive). Also, the GI50 in the test on SK-MEL-2 was > 100 µM (inactive); in the test with RPMI-8226, 46.8 µM (inactive); in the test with OVCAR-4, > 100 µM (inactive); in the test with TK-10 it was > 100 µM (inactive); with NCI-H23, > 100 µM (inactive); in the test on OVCAR-5, > 100 µM (inactive). The GI50 with SN12C is > 100 µM (inactive); in the test with EKVX, > 100 µM (inactive); in the test with 786-0, > 100 µM (inactive); with SF-295, > 100 µM (inactive); in the test on HCT-15, more than 100 µM; in the test with KM12, > 100 µM (inactive). Further, the results for the GI50 in the test with K562 and with OVCAR-8 were 42.2 µM (inactive) and > 100 µM (inactive), respectively.
As to `Cn1c2ccccc2c2c3c(c4c5ccccc5n(C)c4c21)C(=O)N(Cc1ccccc1)C3=O`, the GI50 in the test with CCRF-CEM is > 100 µM (inactive); in the test with HCC 2998 it was > 100 µM (inactive); in the test on SK-MEL-5, 77.4 µM (inactive); in the test with DU-145 it was > 100 µM (inactive); in the test on NCI-H460 it was > 100 µM (inactive); with MDA-MB-435, > 100 µM (inactive). In addition, the GI50 with SK-MEL-2, in the test with RPMI-8226, in the test on OVCAR-4, in the test on TK-10, in the test with NCI-H23 and in the test with OVCAR-5 was > 100 µM (inactive) in each case. Further, the GI50 in the test with SN12C is > 100 µM (inactive); in the test on EKVX, > 100 µM (inactive); in the test on 786-0, > 100 µM (inactive); in the test on SF-295, > 100 µM (inactive); with HCT-15 it was more than 100 µM; in the test on KM12, > 100 µM (inactive). In addition, the GI50 in the test with K562 and in the test with OVCAR-8 was > 100 µM (inactive) each time.

Source of the values: ChEMBL document CHEMBL1201862, “PubChem BioAssay data set” (2004).
